{
  "source": "patent US11779572B1",
  "about": "“Methods of treating gastrointestinal stromal tumors” (Deciphera Pharmaceuticals, LLC, priority 2022, dated 2023)",
  "key": {"[1]": {"assay": "Coadministration with pantoprazole (proton-pump inhibitor)", "assay_type": "in vivo, human", "conditions": "40 mg QD pantoprazole with 150 mg QD ripretinib", "procedure": "The effect of a proton-pump inhibitor on the exposure of ripretinib was evaluated."}, "[2]": {"assay": "Food effect (high-fat meal) on exposure", "assay_type": "in vivo, human", "conditions": "150 mg dose of ripretinib", "procedure": "The effect of a high-fat breakfast on ripretinib and Compound A exposure was evaluated. A high fat meal consisted of approximately 150, 250, and 500-600 calories from protein, carbohydrate, and fat, respectively. […] The food effect is not considered to be clinically significant based on exposure-response analysis. Therefore, ripretinib may be taken with or without food at approximately same time each day."}, "[3]": {"assay": "Unbound fraction / plasma protein binding", "assay_type": "in vitro ADME, human", "conditions": "human, plasma, oral, 50 mg, read-out: unbound fraction fu %", "description": "(§1) Both ripretinib and DP-5439 display high binding to plasma proteins in vitro; therefore, clinical samples were collected to investigate the effect of HI on the unbound fraction (fu) % for both analytes. Distributions of individual mean fu % for both ripretinib and DP-5439 show high variability between participants. The ripretinib mean fu % was ≤0.6% in healthy participants and in participants with hepatic impairment. The DP-5439 fu % was ≤0.5% in healthy participants and 0.2% to 1.4% in participants with hepatic impairment. No clear trend could be established between unbound ripretinib and DP-5439 PK parameters and the degrees of HI."}, "plasma proteins": {"tested_on": "plasma proteins", "assay": "Unbound fraction / plasma protein binding", "assay_type": "in vitro ADME, human", "description": "as §1"}, "[4]": {"assay": "Observed clinical PK after single and multiple doses", "assay_type": "in vivo", "conditions": "human, plasma, oral; SD administration, healthy participants", "procedure": "CYP3A4 inactivation parameters and induction parameters were subsequently incorporated in the model to assess the net effect on drug clearance at steady state. Due to the uncertainty in the in vitro CYP3A4 MBI data and CYP3A4 induction data, a series of sensitivity analysis was performed. […] Therefore, the in vitro CYP3A4 interaction data were used in the final model. The simulated profiles of ripretinib and DP-5439 in virtual participants were compared to the clinical data. […] The predicted mean AUC0-12 values for DP-5439 on Day 1 were within 2-fold (majority within 1.5-fold) of the observed values, except for the 250-mg QD dose. The mean AUC0-12 and Cmax values for DP-5439 on Day 15 were under-predicted. […] For example, the reported AUCs for ripretinib and DP-5439 at the 150-mg QD dose level were 1.66 and 5.29, respectively. […] The mechanisms for the accumulation of DP-5439 were unclear."}, "[5]": {"assay": "PBPK model of ripretinib and DP-5439 (Simcyp Simulator)", "excerpt": "A PBPK model that included a mechanistic absorption model was developed.\nThus, potential auto-induction and auto-inhibition effects were captured within the model.\nSingle dose (SD) PK data from participants with mild, moderate, and severe HI were used to refine and/or verify the PBPK model. […] Subsequently, the corresponding plasma concentration-time profiles in HI participants were likewise simulated and compared to the observed data.\nPredictions of plasma drug concentration-time profiles, clearance and DDIs were performed in the Simcyp Simulator using a population of virtual participants. The default healthy participant population was applied in all simulations involving healthy participants. […] With the exception of demographic data, all parameter values for the healthy participant population were the same as those used for the North European Caucasian population.\nFor simulations involving cancer participants, the North European Caucasian population was used to accommodate the wider age range observed in this population (19 to 87 years old; median 61 years). Weibull age distribution was applied with alpha and beta values of 5.47 and 66.5 years for male participants and 5.22 and 68.57 years for female participants. Age, height and weight distributions for the simulated virtual participant population were consistent with those from the first-in-human dose-escalation study in cancer patients.\nFor simulations involving participants with HI, 3 population models have been developed for the Simcyp Simulator and are based on the 3 Child-Pugh categories (CP-A, CP-B and CP-C). […] When reduced hepatic size was also taken into account, overall CYP3A4 expression in CP-A, CP-B and CP-C participants was reduced to 69%, 36% and 20%, respectively, to that of healthy participants."}},
  "note": "Where two headings read alike, the source gives them in different places.",
  "data": [
    {"smiles": "CCn1c(=O)c(-c2cc(NC(=O)Nc3ccccc3)c(F)cc2Br)cc2cnc(N)cc21", "note": "[Compound A]", "values": [
      {"measurement": "plasma exposure when ripretinib is coadministered with pantoprazole", "setting": "[1]", "value": "No clinically significant differences"},
      {"measurement": "AUC0-24h higher with a high-fat meal", "setting": "[2]", "value": 47, "unit": "%"},
      {"measurement": "Cmax higher with a high-fat meal", "setting": "[2]", "value": 66, "unit": "%"},
      {"measurement": "fraction unbound", "setting": "[3]; healthy participants", "value": "≤ 0.005"},
      {"measurement": "fraction unbound", "setting": "[3]; participants with hepatic impairment", "value": "0.002 to 0.014"},
      {"measurement": "binding to plasma proteins", "setting": "plasma proteins; in vitro", "value": "high binding"},
      {"measurement": "impact of HI (albumin, ALP, ALT, AST, bilirubin changes) on unbound exposure", "setting": "plasma proteins; visual assessment", "value": "did not appear to have an impact"},
      {"measurement": "half-life", "setting": "[4]", "value": "~17", "unit": "h"},
      {"measurement": "all predictions relative to observed", "setting": "[5]; 150 mg QD dose", "value": "≤ 2", "unit": "fold"},
      {"measurement": "predicted mean AUC0-12 relative to observed values", "setting": "[5]; Day 1, except 250-mg QD dose", "value": "≤ 2", "unit": "fold"}
    ]}
  ]
}
